Laboratory results taken from patent publication US20120058507A1, “Clonal Derivation and Cell Culture quality Control Screening Methods” (SRU Biosystems, Inc., priority 2009, published 2012).

Columns and labels:
Assay type in all cases: cell-based
[1] = target: cells expressing α4/β1 integrin receptors (Homo sapiens, UniProt P05556+P13612); assay: Cell attachment PWV shift on ECM ligand coated wells; details: for PWV shift of attached cells: immobilized on biosensor surface
From the text: For example, cells expressing α4/β1 integrin receptors, which are known to bind to fibronectin ligands, but not to collagen or laminin ligands, generate a PWV shift on fibronectin coated wells that is about 8 to 10 times greater than the PWV shift observed on collagen or laminin surfaces.

CXCR4 = target: T1, CXCR4 (Homo sapiens, UniProt P61073); assay: Label-free response to SDF-1α on BIND READER; details: THP-1 cells, OEM cells, MSC cells; different concentrations
T1 construct: endogenous in cells; host or cells: THP-1 cells, 'OEM' cells, MSC cells
T1 sequence (P61073 whole entry, species assumed): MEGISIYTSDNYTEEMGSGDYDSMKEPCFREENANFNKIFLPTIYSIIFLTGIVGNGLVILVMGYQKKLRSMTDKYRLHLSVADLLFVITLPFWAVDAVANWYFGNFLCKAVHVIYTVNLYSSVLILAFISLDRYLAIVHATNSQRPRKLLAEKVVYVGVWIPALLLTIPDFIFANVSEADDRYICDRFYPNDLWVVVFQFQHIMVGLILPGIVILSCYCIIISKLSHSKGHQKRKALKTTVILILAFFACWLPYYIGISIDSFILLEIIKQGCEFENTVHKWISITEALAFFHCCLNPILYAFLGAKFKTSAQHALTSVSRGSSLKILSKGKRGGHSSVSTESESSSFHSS
From the text: SDF-1α binds to and activates CXCR4, a GPCR. Stem cells will move to tissues releasing gradients of SDF-1α. Damaged tissue releases elevated levels of SDF-1α resulting in increased migration of mesenchymal stem cells to sites of injury. Chemotactic factors induce significant changes in the actin cytoskeleton of cells upon receptor activation. These changes are manifested as directional movement when the chemokine is presented as a gradient. SDF-1α induces the migration of mesenchymal stem cells and osteoblast progenitor cells. Overexpression of CXCR4 results in improved MSC migration and homing to sites of vascular injury.

Rat MSC cells = assay: Rat MSC movement on fibronectin-coated biosensor; details: attachment signal zeroed out
Description: Rat MSC cells were added to a biosensor coated with fibronectin. Cell attachment was detected on a colorimetric resonant reflectance biosensor at 3 hours and 16 hours. The attachment signal was zeroed out and the cells were stimulated with SDF-1α or were not stimulated. Movement of the cells can be seen in the right panels of FIG. 12. The darker spots are where the cells were prior to detection and the lighter spots are where the cells are when the reaction was detected. […] An enhanced signal can be seen on the cell edges where movement and/or cell adhesion is occurring. The enhanced signal correlates with the leading edge of the cells as they move across the biosensor as evidenced by time lapse imaging. This is consistent with extracellular matrix-integrin engagement of the cells. […] An approximately 7 to 10 fold improvement in signal to noise is observed.

[2] = target: T2, M4 muscarinic receptor expressing cells (M4R) (Homo sapiens, UniProt P08173); assay: Label-free endpoint response on BIND Reader, M4R cells; details: for Endpoint response of M4R cells to ligand: first addition, 10uM carbachol or 50 nM ET-1, M4R cells plated alone
T2 sequence (P08173 1-479): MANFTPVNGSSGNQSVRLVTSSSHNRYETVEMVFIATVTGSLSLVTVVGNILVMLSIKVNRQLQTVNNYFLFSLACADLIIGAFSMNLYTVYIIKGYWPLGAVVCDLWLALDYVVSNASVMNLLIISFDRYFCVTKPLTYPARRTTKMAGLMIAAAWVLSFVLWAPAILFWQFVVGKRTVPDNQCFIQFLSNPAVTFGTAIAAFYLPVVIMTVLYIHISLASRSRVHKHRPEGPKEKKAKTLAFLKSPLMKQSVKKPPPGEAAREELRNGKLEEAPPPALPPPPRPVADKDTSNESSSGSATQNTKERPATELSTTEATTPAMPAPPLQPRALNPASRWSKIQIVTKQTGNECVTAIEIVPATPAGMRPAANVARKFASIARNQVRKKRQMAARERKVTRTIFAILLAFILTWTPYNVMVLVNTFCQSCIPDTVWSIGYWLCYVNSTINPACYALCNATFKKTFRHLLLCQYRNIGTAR
Description: (§1) The response of the two or more cell types to the stimuli or test reagent can be also detected by a BIND® READER (colorimetric resonant reflectance biosensor system). For example, Endothelin receptor expressing cells (ETaR) and M4 muscarinic receptor expressing cells (M4R) were plated on CA2 cellular matrix-coated colorimetric resonant reflectance biosensor plates in starvation media. The cells were pre-treated with antagonists (either atropine to inhibit M4 or BMS to inhibit ETaR) for 30 min. […] Data are referenced to buffer controls.
(§2) The ETaR cells and M4R cells were then treated with a second ligand.

[3] = target: T3, Endothelin receptor expressing cells (ETaR) (Homo sapiens, UniProt P25101); assay: Label-free endpoint response on BIND Reader, ETaR cells; details: first addition; 10uM carbachol or 50 nM ET-1; ETaR cells plated alone
T3 sequence (P25101 21-427): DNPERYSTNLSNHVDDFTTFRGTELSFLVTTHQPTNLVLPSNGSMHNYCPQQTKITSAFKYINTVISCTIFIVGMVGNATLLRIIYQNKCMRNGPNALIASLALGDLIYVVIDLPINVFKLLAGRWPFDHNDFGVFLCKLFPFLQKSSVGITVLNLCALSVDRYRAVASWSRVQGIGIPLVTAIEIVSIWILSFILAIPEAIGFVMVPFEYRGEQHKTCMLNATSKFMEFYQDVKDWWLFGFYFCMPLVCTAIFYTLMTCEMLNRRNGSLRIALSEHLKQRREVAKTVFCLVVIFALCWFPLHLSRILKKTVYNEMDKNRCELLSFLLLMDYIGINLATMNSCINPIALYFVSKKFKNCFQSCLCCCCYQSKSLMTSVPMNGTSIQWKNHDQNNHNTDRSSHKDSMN
Description: as §1, §2

rat MSC cell = assay: Rat MSC attachment to ECM-coated biosensors; details: ovalbumin, fibronectin, laminin or collagen biosensors
From the text: In certain cases cells, such as stem cell or primary cells, have varying reactions to ligands depending upon what extracellular matrix component is present on the surface of the biosensor. This preference can be determined for each type of cell. […] The mP-M5 and mP-M4 cells show the best reaction to the ligands when they are on biosensors comprising fibronectin or collagen. […] Cells can be tested to determine the best ligand/ECM coating for attachment to the biosensor.

M5/RBL cells = assay: Label-free response of 1:1 mixed RBL and M5/RBL cells on BIND SCANNER; details: 1:1 mixed population of RBL+M5/RBL cells
Description: RBL and M5/RBL cells were mixed in a 1:1 ratio and were plated in colorimetric resonant reflectance biosensor wells. The cells were allowed to attach to the biosensor and the attachment reaction was detected on a BIND® SCANNER. Acetylcholine was added to the biosensor surface. […] Approximately 50% of a 1:1 mixed population of RBL+M5/RBL cells responded to acetylcholine. The responding cells can be gated and analyzed for quantitative responses (e.g., responses to additional test reagents or stimuli) independent of non-responding population. Therefore, the presence of different types of cells on a biosensor can be detected when their response to a ligand is known.

cells expressing α4/β1 integrin receptors, sequence (P13612 34-1032): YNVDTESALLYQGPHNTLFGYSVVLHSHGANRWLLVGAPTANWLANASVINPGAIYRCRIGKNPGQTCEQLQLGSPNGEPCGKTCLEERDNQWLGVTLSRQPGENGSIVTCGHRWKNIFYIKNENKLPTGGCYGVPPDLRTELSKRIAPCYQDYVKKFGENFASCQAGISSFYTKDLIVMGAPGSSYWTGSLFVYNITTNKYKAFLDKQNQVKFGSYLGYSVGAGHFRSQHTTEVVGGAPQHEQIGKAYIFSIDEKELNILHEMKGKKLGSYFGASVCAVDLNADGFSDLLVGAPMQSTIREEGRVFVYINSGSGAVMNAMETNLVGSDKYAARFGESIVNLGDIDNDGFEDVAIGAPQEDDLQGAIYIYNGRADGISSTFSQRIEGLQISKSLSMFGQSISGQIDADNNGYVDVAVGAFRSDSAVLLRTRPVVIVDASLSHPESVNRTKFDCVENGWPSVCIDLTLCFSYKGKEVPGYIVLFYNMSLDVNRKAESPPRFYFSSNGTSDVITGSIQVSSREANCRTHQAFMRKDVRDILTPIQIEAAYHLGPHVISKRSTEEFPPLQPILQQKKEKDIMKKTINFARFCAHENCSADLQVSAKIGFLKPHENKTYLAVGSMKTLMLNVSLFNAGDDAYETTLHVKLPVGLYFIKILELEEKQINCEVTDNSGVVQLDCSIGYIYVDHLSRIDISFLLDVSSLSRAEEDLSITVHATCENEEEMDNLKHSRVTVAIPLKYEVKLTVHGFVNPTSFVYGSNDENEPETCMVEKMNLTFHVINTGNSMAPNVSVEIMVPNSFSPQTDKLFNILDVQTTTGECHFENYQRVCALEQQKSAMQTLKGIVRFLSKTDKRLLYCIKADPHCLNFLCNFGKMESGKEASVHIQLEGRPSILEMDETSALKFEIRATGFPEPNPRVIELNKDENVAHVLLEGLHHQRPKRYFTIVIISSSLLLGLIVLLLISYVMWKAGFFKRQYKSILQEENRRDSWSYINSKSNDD
cells expressing α4/β1 integrin receptors, sequence (P05556 21-798): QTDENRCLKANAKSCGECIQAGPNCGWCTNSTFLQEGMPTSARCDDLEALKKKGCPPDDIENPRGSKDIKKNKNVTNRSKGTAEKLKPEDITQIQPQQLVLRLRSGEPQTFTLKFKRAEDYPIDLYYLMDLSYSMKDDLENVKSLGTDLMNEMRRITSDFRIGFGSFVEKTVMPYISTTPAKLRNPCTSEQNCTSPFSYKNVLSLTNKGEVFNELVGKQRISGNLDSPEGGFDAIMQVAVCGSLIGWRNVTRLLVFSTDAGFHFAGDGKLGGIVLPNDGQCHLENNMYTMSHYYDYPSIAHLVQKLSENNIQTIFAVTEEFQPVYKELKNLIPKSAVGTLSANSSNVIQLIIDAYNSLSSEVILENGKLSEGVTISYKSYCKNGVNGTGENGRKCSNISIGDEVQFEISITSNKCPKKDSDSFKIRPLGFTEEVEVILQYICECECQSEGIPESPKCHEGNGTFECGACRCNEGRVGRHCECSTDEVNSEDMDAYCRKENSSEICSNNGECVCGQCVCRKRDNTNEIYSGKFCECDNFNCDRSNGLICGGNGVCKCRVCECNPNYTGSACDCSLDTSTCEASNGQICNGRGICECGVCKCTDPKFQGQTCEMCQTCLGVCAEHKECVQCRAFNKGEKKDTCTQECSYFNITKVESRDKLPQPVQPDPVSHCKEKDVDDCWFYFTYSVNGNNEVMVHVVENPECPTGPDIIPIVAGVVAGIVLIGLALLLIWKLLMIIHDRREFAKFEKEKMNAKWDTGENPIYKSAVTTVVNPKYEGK

## laminin
[1]
  PWV shift of attached cells: resembles background cell attachment signal

## SDF-1α
CXCR4
  Label-free cell response: rapid and robust response
Rat MSC cells
  Cell movement and morphology after stimulation: movement of the cells is seen along with a spreading out of the cells

## C[N+](C)(C)CCOC(N)=O [carbachol]
[2]
  Endpoint response of M4R cells to ligand: respond to carbachol
[2]; second addition, after ET-1 stimulation
  Response of M4R cells to second ligand: respond to carbachol, even after ET-1 stimulation
[3]
  Endpoint response of ETaR cells to ligand: not to carbachol

## fibronectin
[1]; coated wells
  PWV shift relative to collagen or laminin surfaces: 8 to 10 times

## ET-1: ligand to which Endothelin receptor expressing cells (ETaR) respond
[2]
  Endpoint response of M4R cells to ligand: not to ET-1

## collagen
Rat MSC cell
  Cell attachment compared with other surfaces: better than the other surfaces
[1]
  PWV shift of attached cells: resembles background cell attachment signal

## CN1[C@@H]2CC[C@H]1C[C@@H](OC(=O)C(CO)c1ccccc1)C2 (stereo partly drawn) [Atropine, atropine]
[2]; antagonist pre-treatment 30 min, then 10uM carbachol
  Inhibition of carbachol response in M4R cells: completely inhibited

## CC(=O)OCC[N+](C)(C)C [acetylcholine]
M5/RBL cells
  Fraction of mixed cell population responding: Approximately 50%
